Source: PMC8071163, “Design and Synthesis of 2,6-Disubstituted-4′-Selenoadenosine-5′-N,N-Dimethyluronamide Derivatives as Human A3 Adenosine Receptor Antagonists” (Pharmaceuticals, 2021)

Assays:
hA1AR = target: T1, hA1AR (Homo sapiens, UniProt P30542); assay: Radioligand competition binding assay at hA1AR ([3H]DPCPX)
T1 construct: host or cells: CHO-A1 cells (membranes)
T1 sequence (P30542 1-326): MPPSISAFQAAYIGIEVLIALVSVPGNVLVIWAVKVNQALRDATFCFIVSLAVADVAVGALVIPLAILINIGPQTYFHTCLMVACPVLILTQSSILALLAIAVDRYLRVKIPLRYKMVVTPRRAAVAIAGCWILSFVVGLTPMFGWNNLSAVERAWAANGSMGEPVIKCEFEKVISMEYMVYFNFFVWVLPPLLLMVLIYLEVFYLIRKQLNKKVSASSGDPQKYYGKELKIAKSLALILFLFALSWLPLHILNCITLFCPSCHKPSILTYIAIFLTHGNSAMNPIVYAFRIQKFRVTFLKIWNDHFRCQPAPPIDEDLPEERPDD
Protocol: Adenosine A1 receptor competition binding experiments were carried out in membranes from CHO-A1 cells (Euroscreen, Gosselies, Belgium). On the day of assay, membranes were defrosted and re-suspended in incubation buffer 20 mM Hepes, 100 mM NaCl, 10 mM MgCl2, 2 UI/mL adenosine deaminase (pH = 7.4). Each reaction well of a GF/C multiscreen plate (Millipore, Madrid, Spain), prepared in duplicate, contained 15 μg of protein, 2 nM [^3H]DPCPX and test compound. Nonspecific binding was determined in the presence of 10 μM (R)-PIA. The reaction mixture was incubated at 25 °C for 60 min, after which samples were filtered and measured in a microplate beta scintillation counter (Microbeta Trilux, Perkin Elmer, Madrid, Spain).

hA2AAR = target: T2, hA2AAR (Homo sapiens, UniProt P29274); assay: Radioligand competition binding assay at hA2AAR ([3H]ZM241385)
T2 construct: expressed in transfected cells; host or cells: HeLa-A2A cells (membranes)
Protocol: Adenosine A2A receptor competition binding experiments were carried out in membranes from HeLa-A2A cells. On the day of assay, membranes were defrosted and re-suspended in incubation buffer 50 mM Tris-HCl, 1 mM EDTA, 10 mM MgCl2 and 2 UI/mL adenosine deaminase (pH = 7.4). Each reaction well of a GF/C multiscreen plate (Millipore, Madrid, Spain), prepared in duplicate, contained 10 μg of protein, 3 nM [^3H]ZM241385 and test compound. Nonspecific binding was determined in the presence of 50 μM NECA. The reaction mixture was incubated at 25 °C for 30 min, after which samples were filtered and measured in a microplate beta scintillation counter (Microbeta Trilux, Perkin Elmer, Madrid, Spain).

hA2BAR = target: T3, hA2BAR (Homo sapiens, UniProt P29275); assay: Radioligand competition binding assay at hA2BAR ([3H]DPCPX)
T3 construct: host or cells: HEK-293-A2B cells (membranes)
T3 sequence (P29275 1-332): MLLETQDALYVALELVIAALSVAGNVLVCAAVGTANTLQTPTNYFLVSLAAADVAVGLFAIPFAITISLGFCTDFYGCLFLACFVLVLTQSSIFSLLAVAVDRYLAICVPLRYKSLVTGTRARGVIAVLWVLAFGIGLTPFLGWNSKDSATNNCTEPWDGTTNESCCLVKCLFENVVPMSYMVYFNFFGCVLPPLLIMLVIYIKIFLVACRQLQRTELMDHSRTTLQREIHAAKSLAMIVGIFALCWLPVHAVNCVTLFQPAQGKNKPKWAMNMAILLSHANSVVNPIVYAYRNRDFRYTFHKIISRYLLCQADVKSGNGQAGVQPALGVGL
Protocol: Adenosine A2B receptor competition binding experiments were carried out in membranes from HEK-293-A2B cells (Euroscreen, Gosselies, Belgium) prepared following the provider’s protocol. On the day of assay, membranes were defrosted and re-suspended in incubation buffer 50 mM Tris-HCl, 1 mM EDTA, 10 mM MgCl2, 0.1 mM benzamidine, 10 μg/mL bacitracine and 2 UI/mL adenosine deaminase (pH = 6.5). Each reaction well prepared in duplicate contained 18 μg of protein, 35 nM [^3H]DPCPX and test compound. Nonspecific binding was determined in the presence of 400 μM NECA. The reaction mixture was incubated at 25 °C for 30 min, after which samples were filtered through a multiscreen GF/C microplate and measured in a microplate beta scintillation counter (Microbeta Trilux, Perkin Elmer, Madrid, Spain).

hA3AR [1] = target: T4, hA3AR (Homo sapiens, UniProt P0DMS8); assay: Radioligand competition binding assay at hA3AR ([3H]NECA); design: expressed in transfected cells; host or cells: HeLa-A3 cell line (membranes prepared in laboratory); settings: 0.5 nM [3H]NECA; mean ± SEM (n = 2); read-out: Affinity, Ki, hA3AR
T4 sequence (P0DMS8 1-318): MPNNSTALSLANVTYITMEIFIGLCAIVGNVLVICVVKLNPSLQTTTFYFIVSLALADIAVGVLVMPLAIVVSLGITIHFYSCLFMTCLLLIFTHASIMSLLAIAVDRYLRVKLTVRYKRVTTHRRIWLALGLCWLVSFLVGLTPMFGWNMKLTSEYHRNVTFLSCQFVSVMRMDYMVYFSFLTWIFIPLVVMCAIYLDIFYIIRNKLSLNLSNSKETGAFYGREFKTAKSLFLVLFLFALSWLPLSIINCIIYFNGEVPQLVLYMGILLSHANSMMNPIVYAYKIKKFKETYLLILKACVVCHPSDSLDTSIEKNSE

hA3AR [2] = target: T4, hA3AR; assay: Cyclic AMP accumulation functional assay at hA3AR expressed in CHO cells; assay type: cell-based; design: expressed in transfected cells
Protocol: Human adenosine A3 receptor functional experiments were carried out in CHO-A3#18 cell line. The day before the assay, the cells were seeded on the 96-well culture plate (Falcon 353072, Corning, Glendale, AZ, USA). The cells are washed with wash buffer (Dulbecco’s modified eagle’s medium nutrient mixture F-12 ham (Sigma D8062), 25 mM Hepes; pH = 7.4). Wash buffer is replaced by incubation buffer (Dulbecco’s modified eagle’s medium nutrient mixture F-12 ham (Sigma D8062), 25 mM Hepes, 30 μM Rolipram (Sigma R6520); pH = 7.4). Test compounds and MRS1220 as reference compound (Sigma M228) are added and the cells incubated at 37 °C for 15 min. After, 0.1 μM of 5′-N-ethylcarboxamido-adenosine (NECA) (Sigma E2387) is added and the cells incubated at 37 °C for 10 min. Forskolin (Sigma F3917, Sigma-Aldrich, St. Louis, MO, USA) is added and incubated at 37 °C for 5 min. After incubation, the amount of cAMP is determined using a cAMP Biotrak Enzymeimmunoassay (EIA) System Kit (GE Healthcare RPN225, GE Healthcare, Chicago, IL, USA).

T2 sequence (P29274 whole entry): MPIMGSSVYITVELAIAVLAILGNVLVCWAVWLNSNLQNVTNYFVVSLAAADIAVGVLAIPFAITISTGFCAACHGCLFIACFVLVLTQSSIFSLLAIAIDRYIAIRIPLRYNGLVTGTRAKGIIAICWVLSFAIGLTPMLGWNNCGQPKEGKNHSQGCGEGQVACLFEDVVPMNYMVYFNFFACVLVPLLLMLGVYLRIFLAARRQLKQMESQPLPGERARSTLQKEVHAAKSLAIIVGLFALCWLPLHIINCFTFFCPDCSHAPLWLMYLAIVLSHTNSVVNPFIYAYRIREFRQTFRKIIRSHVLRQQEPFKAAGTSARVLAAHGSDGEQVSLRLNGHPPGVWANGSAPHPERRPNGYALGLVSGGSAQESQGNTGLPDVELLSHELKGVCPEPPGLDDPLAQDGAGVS

| Compound | inhibition at 10 µM (hA1AR) | inhibition at 10 µM (hA2AAR) | inhibition at 10 µM (hA2BAR) | Ki (hA3AR [1]) | Behaviour in cAMP functional assay at hA3AR (hA3AR [2]) | Kb (hA3AR [2]; inhibition of NECA-induced cAMP accumulation) |
| --- | --- | --- | --- | --- | --- | --- |
| CN(C)C(=O)[C@H]1[Se][C@@H](n2cnc3c(N)ncnc32)[C@H](O)[C@@H]1O [Compound 9a, (2S,3S,4R,5R)-5-(6-amino-9H-purin-9-yl)-3,4-dihydroxy-N,N-dimethyltetra hydroselenophene-2-carboxamide] | 16% | 22% | 17% | 3710 ± 600 nM | – | – |
| CNc1ncnc2c1ncn2[C@@H]1[Se][C@H](C(=O)N(C)C)[C@@H](O)[C@H]1O [Compound 9b, (2S,3S,4R,5R)-3,4-dihydroxy-N,N-dimethyl-5-(6-(methylamino)-9H-purin-9-yl)tetrahydroselenophene-2-carboxamide] | 9% | 3% | 9% | 609 ± 47 nM | – | – |
| CN(C)C(=O)[C@H]1[Se][C@@H](n2cnc3c(NCc4cccc(F)c4)ncnc32)[C@H](O)[C@@H]1O [Compound 9c, (2S,3S,4R,5R)-5-(6-((3-fluorobenzyl)amino)-9H-purin-9-yl)-3,4-dihydroxy-N,N-dimethyltetrahydroselenophene-2-carboxamide] | 13% | 12% | 19% | 2020 ± 170 nM | – | – |
| CN(C)C(=O)[C@H]1[Se][C@@H](n2cnc3c(NCc4cccc(Cl)c4)ncnc32)[C@H](O)[C@@H]1O [Compound 9d, (2S,3S,4R,5R)-5-(6-((3-chlorobenzyl)amino)-9H-purin-9-yl)-3,4-dihydroxy-N,N-dimethyltetrahydroselenophene-2-carboxamide] | 23% | 4% | 15% | 1190 ± 160 nM | – | – |
| CN(C)C(=O)[C@H]1[Se][C@@H](n2cnc3c(NCc4cccc(Br)c4)ncnc32)[C@H](O)[C@@H]1O [Compound 9e, (2S,3S,4R,5R)-5-(6-((3-bromobenzyl)amino)-9H-purin-9-yl)-3,4-dihydroxy-N,N-dimethyltetrahydroselenophene-2-carboxamide] | 43% | 37% | – | 36.3 ± 12.7 nM | – | – |
| CN(C)C(=O)[C@H]1[Se][C@@H](n2cnc3c(NCc4cccc(I)c4)ncnc32)[C@H](O)[C@@H]1O [Compound 9f, (2S,3S,4R,5R)-3,4-dihydroxy-5-(6-((3-iodobenzyl)amino)-9H-purin-9-yl)-N,N-dimethyltetrahydroselenophene-2-carboxamide] | 36% | 32% | – | 22.7 ± 8.9 nM | – | – |
| CN(C)C(=O)[C@H]1[Se][C@@H](n2cnc3c(N)nc(Cl)nc32)[C@H](O)[C@@H]1O [Compound 9g, (2S,3S,4R,5R)-5-(2-chloro-6-amino-9H-purin-9-yl)-3,4-dihydroxy-N,N-dimethyltetrahydroselenophene-2-carboxamide] | 9% | 3% | 25% | 3250 ± 370 nM | – | – |
| CNc1nc(Cl)nc2c1ncn2[C@@H]1[Se][C@H](C(=O)N(C)C)[C@@H](O)[C@H]1O [Compound 9h, (2S,3S,4R,5R)-5-(2-chloro-6-(methylamino)-9H-purin-9-yl)-3,4-dihydroxy-N,N-dimethyltetrahydroselenophene-2-carboxamide] | 58% | 5% | 19% | 1060 ± 140 nM | – | – |
| CN(C)C(=O)[C@H]1[Se][C@@H](n2cnc3c(NCc4cccc(F)c4)nc(Cl)nc32)[C@H](O)[C@@H]1O [Compound 9i, (2S,3S,4R,5R)-5-(2-chloro-6-((3-fluorobenzyl)amino)-9H-purin-9-yl)-3,4-dihydroxy-N,N-dimethyltetrahydroselenophene-2-carboxamide] | 34% | 9% | 14% | 238 ± 37 nM | – | – |
| CN(C)C(=O)[C@H]1[Se][C@@H](n2cnc3c(NCc4cccc(Cl)c4)nc(Cl)nc32)[C@H](O)[C@@H]1O [Compound 9j, (2S,3S,4R,5R)-5-(2-chloro-6-((3-chlorobenzyl)amino)-9H-purin-9-yl)-3,4-dihydroxy-N,N-dimethyltetrahydroselenophene-2-carboxamide] | 63% | 13% | 27% | 195 ± 40 nM | – | – |
| CN(C)C(=O)[C@H]1[Se][C@@H](n2cnc3c(NCc4cccc(Br)c4)nc(Cl)nc32)[C@H](O)[C@@H]1O [Compound 9k, (2S,3S,4R,5R)-5-(6-((3-bromobenzyl)amino)-2-chloro-9H-purin-9-yl)-3,4-dihydroxy-N,N-dimethyltetrahydroselenophene-2-carboxamide] | 58% | 10% | 27% | 180 ± 12 nM | – | – |
| CN(C)C(=O)[C@H]1[Se][C@@H](n2cnc3c(NCc4cccc(I)c4)nc(Cl)nc32)[C@H](O)[C@@H]1O [Compound 9l, (2S,3S,4R,5R)-5-(2-chloro-6-((3-iodobenzyl)amino)-9H-purin-9-yl)-3,4-dihydroxy-N,N-dimethyltetrahydroselenophene-2-carboxamide] | 68% | 10% | 23% | 253 ± 29 nM | antagonist activity | 114 nM |
